Laboratory results as given in patent publication US20070186358A1, “Concentrated optical brightener solutions” (priority 2004, published 2007).

Tests used:
[1] = Viscosity of concentrated aqueous solution; type: physicochemical; settings: aqueous solution of sodium salt, 0.330 mol/kg, 2.0% sodium chloride; at 20° C.
Description: (§1) A solution of 21.3 parts aniline-2,5-disulphonic acid and 6.7 parts sodium hydroxide in 30 parts water is added to a stirred suspension of 15.5 parts cyanuric chloride in 50 parts ice water. The pH is kept at 6 by the dropwise addition of 30% sodium hydroxide. The mixture is stirred below 10° C. until primary aromatic amine groups can no longer be detected by the diazo reaction. A solution of 14.8 parts 4,4′-diaminostilbene-2,2′-disulphonic acid and 3.2 parts sodium hydroxide in 20 parts water is then added, the pH is adjusted to between 6.5 and 7.5 by the addition of 30% sodium hydroxide and the mixture is stirred at 30° C. until a negative diazo reaction is obtained. A solution of 12.2 parts L-aspartic acid in 22.9 parts 16% sodium hydoxide is added, and the mixture is heated at reflux for 6 hours, the pH being kept at 7.5 to 8.5 by the addition of 30% sodium hydroxide. The aqueous solution so-formed of (2) in the form of its sodium salt, which is approximately 0.167 mol/kg in concentration, is desalinated by membrane filtration and concentrated to 0.330 mol/kg (50% by weight).
(§2) An aqueous solution of (3) in the form of its sodium salt at a concentration of 0.330 mol/kg (51% by weight) is prepared as described in Example 1 but using 13.5 parts L-glutamic acid in place of 12.2 parts L-aspartic acid.

[2] = Storage stability of concentrated aqueous solution (precipitation at 5° C.); type: physicochemical; settings: aqueous solution of sodium salt, 0.330 mol/kg, 2.0% sodium chloride, no solubilizing agent; 2 weeks at 5° C.
Description: as §1, §2

| Structure (SMILES) | viscosity [1] | precipitation on storage [2] |
| --- | --- | --- |
| O=C(O)CC(Nc1nc(Nc2ccc(/C=C/c3ccc(Nc4nc(Nc5cc(S(=O)(=O)O)ccc5S(=O)(=O)O)nc(NC(CC(=O)O)C(=O)O)n4)cc3S(=O)(=O)O)c(S(=O)(=O)O)c2)nc(Nc2cc(S(=O)(=O)O)ccc2S(=O)(=O)O)n1)C(=O)O (stereo not shown) [Example 1] | 0.23-0.25 Pa.s | no signs of precipitation |
| O=C(O)CCC(Nc1nc(Nc2ccc(/C=C/c3ccc(Nc4nc(Nc5cc(S(=O)(=O)O)ccc5S(=O)(=O)O)nc(NC(CCC(=O)O)C(=O)O)n4)cc3S(=O)(=O)O)c(S(=O)(=O)O)c2)nc(Nc2cc(S(=O)(=O)O)ccc2S(=O)(=O)O)n1)C(=O)O (stereo not shown) [Example 2] | 0.23-0.25 Pa.s | no signs of precipitation |
